Like-named read-outs stand apart in the source and are kept apart here.
What was measured:
[1] = biological target: T1, purified full-length human ERβ (Homo sapiens, UniProt Q92731); settings: for β/α ratio (of RBA values): ERβ RBA / ERα RBA
LoVo colon cancer cells = assay: Cell viability assay, LoVo; settings: read-out: Effects on cell growth IC50, LoVo, 96 h
U87 glioma cells = assay: Cell viability assay, U87; settings: read-out: Effects on cell growth IC50, U87, 96 h
HCT colon cancer cells = assay: Cell viability assay, HCT; settings: read-out: Effects on cell growth IC50, HCT, 96 h
[2] = test system: SkBr3 breast cancer cells; assay: Cell viability assay, SkBr3; settings: Homo sapiens, SK-BR-3, 96 h, read-out: Effects on cell growth IC50, SkBr3
[3] = test system: MDA-MB-231 breast cancer cells; assay: Cell viability assay, MDA-MB-231; settings: Homo sapiens, MDA-MB-231, 96 h, read-out: Effects on cell growth IC50, MDA231
[4] = biological target: ERβ LBD/C369-biotin with SRC3 NRID-fluorescein (Homo sapiens, UniProt Q92731); assay: tr-FRET SRC3 titration into ERβ-ligand complex; settings: E2 = 100
Sequence of ERβ LBD/C369-biotin with SRC3 NRID-fluorescein (Q9Y6Q9 627-829): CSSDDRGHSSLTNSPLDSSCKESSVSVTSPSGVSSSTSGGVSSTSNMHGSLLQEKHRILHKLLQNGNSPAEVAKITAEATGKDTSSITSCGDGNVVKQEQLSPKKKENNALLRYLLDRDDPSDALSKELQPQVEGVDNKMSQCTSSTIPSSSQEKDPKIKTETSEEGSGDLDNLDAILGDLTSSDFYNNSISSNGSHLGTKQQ
Sequence of ERβ LBD/C369-biotin with SRC3 NRID-fluorescein (Q92731 256-503): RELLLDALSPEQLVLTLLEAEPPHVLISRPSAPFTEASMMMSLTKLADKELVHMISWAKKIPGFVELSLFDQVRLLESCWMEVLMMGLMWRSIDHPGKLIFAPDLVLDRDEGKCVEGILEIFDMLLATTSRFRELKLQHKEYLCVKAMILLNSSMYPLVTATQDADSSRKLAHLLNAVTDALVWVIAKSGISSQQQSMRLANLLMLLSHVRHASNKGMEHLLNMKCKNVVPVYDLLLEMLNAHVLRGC

[5] = biological target: ERβ/C369-biotin-SaTb with SRC3 NRID-fluorescein (Homo sapiens, UniProt Q92731); assay: tr-FRET ligand titration into ERβ and SRC3; assay type: biochemical; settings: read-out: Ligand coactivator recruitment potency (Ligand titration) EC50; ligand titrated into 1 nM ERβ LBD, 0.25 nM SaTb, 100 nM SRC3-fluorescein; mean ± SD
Sequence of ERβ/C369-biotin-SaTb with SRC3 NRID-fluorescein (Q9Y6Q9 627-829): as the sequence (Q9Y6Q9 627-829) above
Sequence of ERβ/C369-biotin-SaTb with SRC3 NRID-fluorescein (Q92731 256-503): as the sequence (Q92731 256-503) above

MCF7 breast cancer cells = assay: Cell viability assay, MCF7; settings: Homo sapiens, MCF7, 96 h, read-out: Effects on cell growth IC50, MCF7
[6] = biological target: T1, purified full-length human ERβ; assay: biochemical

T1 sequence (Q92731 whole entry): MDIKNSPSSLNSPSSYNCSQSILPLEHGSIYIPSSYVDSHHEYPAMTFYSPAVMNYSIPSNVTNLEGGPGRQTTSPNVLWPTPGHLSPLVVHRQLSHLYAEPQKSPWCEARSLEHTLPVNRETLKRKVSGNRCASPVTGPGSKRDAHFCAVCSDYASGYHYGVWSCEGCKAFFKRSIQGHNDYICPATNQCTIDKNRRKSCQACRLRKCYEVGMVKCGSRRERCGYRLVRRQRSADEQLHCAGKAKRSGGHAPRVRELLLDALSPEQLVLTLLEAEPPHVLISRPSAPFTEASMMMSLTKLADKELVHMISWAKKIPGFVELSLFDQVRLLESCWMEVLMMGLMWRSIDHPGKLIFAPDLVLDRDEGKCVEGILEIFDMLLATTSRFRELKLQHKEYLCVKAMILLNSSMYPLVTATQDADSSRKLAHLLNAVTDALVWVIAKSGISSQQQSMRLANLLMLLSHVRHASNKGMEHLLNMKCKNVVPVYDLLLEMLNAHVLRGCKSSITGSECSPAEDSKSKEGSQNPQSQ

SMILES	β/α ratio (of RBA values) [1]	Efficacy % (completeness of the curves relative to E2) [4] [%]	EC50 [5] [µM]	Ki [6] [µM]	further results
COc1ccc(-c2ccc(O)c3c2CC/C3=N\O)cc1 [1b, (E)-7-hydroxy-4-(4-methoxyphenyl)-2,3-dihydro-1H-inden-1-one oxime]	3.0	–	–	–	–
COc1ccc(-c2ccc(O)c3c2CC/C3=N\O)cc1F [1d, (E)-4-(3-fluoro-4-methoxyphenyl)-7-hydroxy-2,3-dihydro-1H-inden-1-one oxime]	0.8	–	–	–	–
O=C1C[C@@H](c2ccc(O)cc2)Oc2cc(O)ccc21 [Liquiritigenin, reference compound]	–	–	–	–	IC50 (LoVo colon cancer cells; human colon cancer, mean ± SD): 101 ± 10.2 µM; IC50 (U87 glioma cells; human glioma, mean ± SD): 115 ± 11.7 µM; IC50 (HCT colon cancer cells; human colon cancer, mean ± SD): 75.3 ± 7.1 µM
COc1ccc(-c2ccc(O)c3c2CC/C3=N\O)cc1C [1f, (E)-7-hydroxy-4-(4-methoxy-3-methylphenyl)-2,3-dihydro-1H-inden-1-one oxime]	1.0	–	–	–	–
O/N=C1\CCc2c(-c3ccc(O)c(Cl)c3)ccc(O)c21 [1g, (E)-4-(3-chloro-4-hydroxyphenyl)-7-hydroxy-2,3-dihydro-1H-inden-1-one oxime]	8.0	–	–	–	–
O/N=C1\CCc2c(-c3ccc(O)cc3)ccc(O)c21 [1a, (E)-7-hydroxy-4-(4-hydroxyphenyl)-2,3-dihydro-1H-inden-1-one oxime]	16	93	0.0142 ± 0.003	0.0117	IC50 [2]: 140 ± 11.2 µM; IC50 [3]: 42.3 ± 1.1 µM; IC50 (MCF7 breast cancer cells): 70.1 ± 12.4 µM; IC50 (LoVo colon cancer cells; Homo sapiens, LoVo): 19.8 ± 2.1 µM; IC50 (U87 glioma cells; Homo sapiens, U-87 MG): 150.7 ± 1.2 µM; IC50 (HCT colon cancer cells; Homo sapiens): 61.5 ± 8.8 µM
Cc1cc(-c2ccc(O)c3c2CC/C3=N\O)ccc1O [1e, (E)-7-hydroxy-4-(4-hydroxy-3-methylphenyl)-2,3-dihydro-1H-inden-1-one oxime]	6.3	–	–	–	–
COc1ccc(-c2ccc(O)c3c2CC/C3=N\O)cc1Cl [1h, (E)-4-(3-chloro-4-methoxyphenyl)-7-hydroxy-2,3-dihydro-1H-inden-1-one oxime]	0.50	–	–	–	–
O/N=C1\CCc2c(-c3ccccc3)ccc(O)c21 [1i, (E)-7-hydroxy-4-phenyl-2,3-dihydro-1H-inden-1-one oxime]	89	72	0.393 ± 0.124	0.282	decrease of ERβ affinity compared to 1a ([1]; from RBA values): 24 fold
O/N=C1\CCc2c(-c3ccc(O)c(F)c3)ccc(O)c21 [1c, (E)-4-(3-fluoro-4-hydroxyphenyl)-7-hydroxy-2,3-dihydro-1H-inden-1-one oxime]	33	88	0.0195 ± 0.0026	0.0106	IC50 [2]: 130 ± 9.7 µM; IC50 [3]: 8.1 ± 1.3 µM; IC50 (MCF7 breast cancer cells): 23.2 ± 1.4 µM; IC50 (LoVo colon cancer cells; Homo sapiens, LoVo): 14.5 ± 3.1 µM; IC50 (U87 glioma cells; Homo sapiens, U-87 MG): 32.3 ± 1.1 µM; IC50 (HCT colon cancer cells; Homo sapiens): 10.8 ± 1.2 µM
